Experiments:
HepG2 cells [1] = test: Electron-microscopic examination of PLsis induction potential (myelin-like structure)
asah1 = test: Real-time quantitative PCR of PLsis marker gene expression; assay type: cell-based, human; conditions: HepG2 cells, 24 hr exposure, relative value, control group = 1.0, GAPDH internal standard, n=3
In short: (§1)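 Expression of each marker gene, relative to the untreated control group, was measured by real-time TaqMan PCR on cDNA from compound-treated cells. GAPDH served as the internal standard.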

slc2a3 = test: as above; assay type: cell-based, human; conditions: HepG2 cells, 24 hr exposure, relative value, control group = 1.0, GAPDH internal standard, n=3
In short: as §1

serpina3 = test: as above; assay type: cell-based, human; conditions: HepG2 cells, 24 hr exposure, relative value, control group = 1.0, GAPDH internal standard, n=3
In short: as §1

hpn = test: as above; assay type: cell-based, human; conditions: HepG2 cells, 24 hr exposure, relative value, control group = 1.0, GAPDH internal standard, n=3
In short: as §1

mgc4171 = test: as above; assay type: cell-based, human; conditions: HepG2 cells, 24 hr exposure, relative value, control group = 1.0, GAPDH internal standard, n=3
In short: as §1

lss = test: as above; assay type: cell-based, human; conditions: HepG2 cells, 24 hr exposure, relative value, control group = 1.0, GAPDH internal standard, n=3
In short: as §1

fabp1 = test: as above; assay type: cell-based, human; conditions: HepG2 cells, 24 hr exposure, relative value, control group = 1.0, GAPDH internal standard, n=3
In short: as §1

flj22362 = test: as above; assay type: cell-based, human; conditions: HepG2 cells, 24 hr exposure, relative value, control group = 1.0, GAPDH internal standard, n=3
In short: as §1

nr0b2 = test: as above; assay type: cell-based, human; conditions: HepG2 cells, 24 hr exposure, relative value, control group = 1.0, GAPDH internal standard, n=3
In short: as §1

kiaa1001 = test: as above; assay type: cell-based, human; conditions: HepG2 cells, 24 hr exposure, relative value, control group = 1.0, GAPDH internal standard, n=3
In short: as §1

tagln = test: as above; assay type: cell-based, human; conditions: HepG2 cells, 24 hr exposure, relative value, control group = 1.0, GAPDH internal standard, n=3
In short: as §1

depp = test: as above; assay type: cell-based, human; conditions: HepG2 cells, 24 hr exposure, relative value, control group = 1.0, GAPDH internal standard, n=3
In short: as §1

HepG2 cells [2] = test: Highest concentration at which cells were viable after 72 hr exposure; assay type: cell-based, human

Compound | frequency of appearance of myelin-like structure (HepG2 cells [1]) | expression variation rate asah1 (asah1) | expression variation rate slc2a3 (slc2a3) | expression variation rate serpina3 (serpina3) | expression variation rate hpn (hpn) | expression variation rate mgc4171 (mgc4171) | expression variation rate lss (lss) | expression variation rate fabp1 (fabp1) | expression variation rate flj22362 (flj22362) | expression variation rate nr0b2 (nr0b2) | expression variation rate kiaa1001 (kiaa1001) | expression variation rate tagln (tagln) | expression variation rate depp (depp) | addition concentration (highest concentration at which cells survived after 72 hr of culture) (HepG2 cells [2])
CC(C)N(CCC(C(N)=O)(c1ccccc1)c1ccccn1)C(C)C (centres unmarked) [disopyramide] | − | 1.85 | 1.03 | 0.99 | 1.12 | 1.21 | 1.14 | 1.02 | 0.98 | 0.63 | 0.94 | 0.99 | 0.90 | 25 µmol/L
O=C(NCC1CCCCN1)c1cc(OCC(F)(F)F)ccc1OCC(F)(F)F (centres unmarked) [flecainide] | − | 2.42 | 0.46 | 1.60 | 1.26 | 1.57 | 1.22 | 1.50 | 1.65 | 1.02 | 2.10 | 0.86 | 1.73 | 25 µmol/L
CCN(CC)CCNC(=O)c1ccc(N)cc1 [procainamide] | − | 0.86 | 0.88 | 0.96 | 1.08 | 1.08 | 0.90 | 1.00 | 0.73 | 0.74 | 1.78 | 0.85 | 0.98 | 25 µmol/L
C[C@H]1COc2c(N3CCN(C)CC3)c(F)cc3c(=O)c(C(=O)O)cn1c23 [levofloxacin] | − | 1.10 | 1.07 | 0.92 | 0.83 | 0.79 | 0.75 | 0.88 | 0.83 | 0.79 | 0.70 | 0.90 | 0.83 | 25 µmol/L

Reference: patent US20070218460A1, “Method of Estimating Toxicity of Drug” (TAKEDA PHARMACEUTICAL COMPANY LIMITED, priority 2003, published 2007)
